The test system of assay [1] is Triticum aestivum cv. Hereward leaf segments. As to the kind of experiment: Senescence bioassay on detached wheat leaf segments (chlorophyll retention). The note with it: for maximum effective concentration: 96 h in the dark; for activity (%) [10^−4 mol · l^−1 BAP = 100%]: at maximum effective concentration. The protocol: Seeds of winter wheat, Triticum aestivum cv. Hereward, were washed under running water for 24 hours and then sown on vermiculite soaked with Knop's solution. They were placed in the growth chamber at 25° C. with a 16/8 h light period at […]. After 7 days, the first leaf was fully developed and the second leaf had started to grow. A tip section of the first leaf, approximately 35 mm long, was removed from 5 seedlings and trimmed slightly to a combined weight of 100 mg. The basal ends of the five leaf tips were placed in the wells of a microtiter polystyrene plate containing 150 μL of the tested derivative solution each. The entire plate was inserted into a plastic box lined with paper tissues soaked in distilled water to prevent leaf sections from drying out. After 96 h incubation in the dark at 25° C., the leaves were removed and chlorophyll extracted by heating at 80° C. for 10 min in 5 mL of 80% ethanol (v/v). The sample volume was then restored to 5 mL by the addition of 80% ethanol (v/v). The absorbance of the extract was recorded at 665 nm. In addition, chlorophyll extracts from fresh leaves and leaf tips incubated in deionised water were measured. The results are means of five replicates and the entire test was repeated twice. […] The compounds to be tested were dissolved in dimethylsulfoxide (DMSO) and the solution brought up to 10^−3 M with distilled water. […] The activity obtained for 10^−4 M of BAP was postulated as 100%. Kinetin was used as the second standard. Newly prepared compounds generally exceeded the efficiency of standard (BAP) by 10% of its activity (Tab. 5).

The test system of assay [2] is Normal human dermal fibroblasts (NHDF). As to the kind of experiment: In vitro UVA/UVB photoprotection test on NHDF (Example 9). It counts as cell-based. From the text:
Normal human dermal fibroblasts (NHDF) were used as an in vitro model. Cells were isolated from tissue specimens obtained from healthy patients undergoing plastic surgery at the Department of Plastic and Aesthetic Surgery (University Hospital Olomouc). The use of skin tissue was in accordance with the Ethics Committee of the University Hospital and Faculty of Medicine and Dentistry, Palacky University, Olomouc and all patients signed written informed consent. Fibroblasts were used between the 2nd and 4th passage. For all experiments the fibroblasts were seeded onto 96-well plates at a density of 0.8×10^5 cells/ml (0.2 ml per well) of cultivation medium (DMEM supplemented with fetal calf serum (10%, v/v), penicillin ([…]) and streptomycin (100 U/ml)). Test substances included compounds number 1, 3, 9, 15 and 20. Compounds were dissolved in DMSO and then diluted in serum free medium (DMEM supplemented with penicillin ([…]) and streptomycin (100 U/ml)). After 24 h incubation was cultivation medium changed to serum free medium containing test compound or DMSO (negative control). The final applied concentrations range was 3.9-31.3 μmol/ll. As a control serum free medium supplemented with appropriate concentration of DMSO (0.5%, v/v) was used. Rosmarinic acid was used as positive control. Each test compound was in parallel applied on two 96-well plates with NHDF. After 60 minutes incubation medium with test compound was discarded, cells were washed two-times with PBS and PBS supplemented with glucose (1 mg/ml) was applied. To study UVA photoprotection, a plate was exposed to a cytotoxic dose of UVA radiation (7.5 J/cm^2) using a solar simulator SOL 500 (Dr. Hoenle Technology, Germany) equipped with a H1 filter transmitting wavelengths of 320-400 nm. To study UVB photoprotection, a plate was exposed to a cytotoxic dose of UVB radiation (150 mJ/cm^2) using the solar simulator equipped with a H2 filter transmitting wavelengths of 295-320 nm. Intensity of UVA or UVB radiation was evaluated before each irradiation by UVA- or UVB-meter. Control (non-irradiated) plates were for the period of irradiation incubated in dark. After UVA or UVB exposure PBS with glucose was discarded and serum free medium was applied. After 24 hours (37° C., 5% CO2) cell damage was evaluated by neutral red (NR) incorporation into viable cells. Medium was discarded and NR solution (0.03% w/v, PBS) was applied. After 60 minutes NR solution was discarded, cells were fixed with a mixture of formaldehyde (0.5%, v/v) and CaCl2 (1%, m/v) in ratio 1:1 and then NR was dissolved in methanol (50%, v/v) with acetic acid (1%, v/v). After 5 minutes of intensive shaking absorbance was measured at 540 nm. Experiments were performed in four independent repetitions with use of cells from four donors to minimize individual sensitivity of donor cells. Photoprotective effect was evaluated by comparison of experimental data (absorbance) of test compounds with a positive control and a negative control (according to the following equation:
[formula] • As . . . absorbance of sample (cells pre-incubated with test compounds in serum free medium and irradiated) • Anc . . . absorbance of negative control (cells pre-incubated with s DMSO in serum free medium and non-irradiated=incubated in dark) • Apc . . . absorbance of positive control (cells pre-incubated with s DMSO in serum free medium and irradiated)

This note sets out measurements from patent US10774084B2, “Adenine derivatives and their use as UV-photoprotective agents” (UNIVERZITA PALACKEHO V OLOMOUCI, priority 2015, dated 2020).

For the compound `c1nc(NCC2CCCO2)c2ncn(C3CCCO3)c2n1` (centres unmarked) [Compound 1, 6-(tetrahydrofuran-2-ylmethylamino)-9-(tetrahydrofuran-2-yl)purine], in assay [1], the maximum effective concentration is given as 10^−4 mol · l^−1 and the “activity (%) [10^−4 mol · l^−1 BAP = 100%]” value (shortened to “activity (%)”) worked out at 125 ± 9%.
Turning to `OCc1ccc(CNc2ncnc3c2ncn3C2CCCO2)o1` (centres unmarked) [Compound 3, 6-(5-hydroxymethylfuran-2-ylmethylamino)-9-(tetrahydrofuran-2-yl)purine], the “Protection (%)” value in assay [2] (UVA 7.5 J/cm^2, 3.9 μmol/l) came to 14.7%; in assay [2] (UVA 7.5 J/cm^2, 7.8 μmol/l), 16.3%; in assay [2] (UVA 7.5 J/cm^2, 15.6 μmol/l) it was 24.6%; in assay [2] (UVA 7.5 J/cm^2, 31.3 μmol/l) it was 25.8%; in assay [2] (UVB 150 mJ/cm^2, 3.9 μmol/l) it was 43.6%; in assay [2] (UVB 150 mJ/cm^2, 7.8 μmol/l), 53.1%. Also, the “Protection (%)” value in assay [2] (UVB 150 mJ/cm^2, 15.6 μmol/l) stood at 47.4%; in assay [2] (UVB 150 mJ/cm^2, 31.3 μmol/l), 48.4%.
For the compound `c1csc(CNc2ncnc3c2ncn3C2CCCO2)c1` (centres unmarked) [Compound 9, 6-(thiophen-2-ylmethylamino)-9-(tetrahydrofuran-2-yl)purine], the maximum effective concentration in assay [1] is recorded as 10^−4 mol · l^−1. Further, the “activity (%)” value in assay [1] worked out at 112 ± 5%. In addition, the “Protection (%)” value in assay [2] (UVA 7.5 J/cm^2, 3.9 μmol/l) is 41.3%; in assay [2] (UVA 7.5 J/cm^2, 7.8 μmol/l), 44.4%; in assay [2] (UVA 7.5 J/cm^2, 15.6 μmol/l) it was 45.7%; in assay [2] (UVA 7.5 J/cm^2, 31.3 μmol/l), 52.0%; in assay [2] (UVB 150 mJ/cm^2, 3.9 μmol/l), 34.9%; in assay [2] (UVB 150 mJ/cm^2, 7.8 μmol/l) it was 62.6%. The “Protection (%)” value in assay [2] (UVB 150 mJ/cm^2, 15.6 μmol/l) is given as 64.4%; in assay [2] (UVB 150 mJ/cm^2, 31.3 μmol/l), 68.7%.
As to `Clc1nc(NCc2ccco2)c2ncn(C3CCCO3)c2n1` (centres unmarked) [Compound 15, 2-chloro-6-furfurylamino-9-(tetrahydrofuran-2-yl)purine], the “Protection (%)” value is reported as 24.5% in assay [2] (UVA 7.5 J/cm^2, 3.9 μmol/l); 29.9% in assay [2] (UVA 7.5 J/cm^2, 7.8 μmol/l); 33.0% in assay [2] (UVA 7.5 J/cm^2, 15.6 μmol/l); 35.3% in assay [2] (UVA 7.5 J/cm^2, 31.3 μmol/l); 39.9% in assay [2] (UVB 150 mJ/cm^2, 3.9 μmol/l); 55.2% in assay [2] (UVB 150 mJ/cm^2, 7.8 μmol/l). Further, the “Protection (%)” value was 53% in assay [2] (UVB 150 mJ/cm^2, 15.6 μmol/l) and 60.2% in assay [2] (UVB 150 mJ/cm^2, 31.3 μmol/l).
As to `Clc1nc(NCC2CCCO2)c2ncn(C3CCCO3)c2n1` (centres unmarked) [Compound 20, 2-chloro-6-(tetrahydrofuran-2-ylmethylamino)-9-(tetrahydrofuran-2-yl)purine], the maximum effective concentration in assay [1] was 10^−4 mol · l^−1. Further, in assay [1], the “activity (%)” value is on record as 127 ± 5%. Also, the “Protection (%)” value stood at 5.9% in assay [2] (UVA 7.5 J/cm^2, 3.9 μmol/l); 10.7% in assay [2] (UVA 7.5 J/cm^2, 7.8 μmol/l); 11.5% in assay [2] (UVA 7.5 J/cm^2, 15.6 μmol/l); 16.2% in assay [2] (UVA 7.5 J/cm^2, 31.3 μmol/l); 39.8% in assay [2] (UVB 150 mJ/cm^2, 3.9 μmol/l); 58.3% in assay [2] (UVB 150 mJ/cm^2, 7.8 μmol/l). The “Protection (%)” value in assay [2] (UVB 150 mJ/cm^2, 15.6 μmol/l) came to 58.2%; in assay [2] (UVB 150 mJ/cm^2, 31.3 μmol/l) it was 60%.
